We go through 7 compounds from patent US20250136649A1, “HONEY TRUFFLE SWEETENER (HTS) VARIANTS” (MYCOTECHNOLOGY, INC., priority 2023, published 2025).

Experiment [1] deals with sweetness and flavor perception. Briefly: Tasting of HTS sweetener blends in citric acid solution, lemon/lime soda, almond milk, chocolate spread. The class given is in vivo, human. The protocol: Sucrose is the standard for sweetness intensity perception in the food and beverage industry. […] With regard to the following Examples 18-38, sucrose equivalent (SE) values of non-sucrose sweeteners were calculated from Dubois et al. (1991) and cross referenced with other studies (Wee, M., Tan, V., & Forde, C. (2018). A Comparison of Psychophysical Dose-Response Behaviour across 16 Sweeteners. Nutrients, 10 (11), 1632).
DE Walters, FT Orthoefer, GE DuBois, pp. 261-276. Washington, DC: Am. Chem. Soc).
An HTS sweetness concentration response curve was developed. These values were used to determine approximate sucrose equivalents for the following blending examples (Examples 18-37).
HTS ((0.0 mg/mL, 0.007 mg/mL, 0.015 mg/mL and 0.035 mg/mL) and sucrose (8% w/w, 6% w/w, 4% w/w, and 2% w/w (respectively)) were added to a citric acid solution. The sweetener mixture was compared to a control with only sucrose added to the matrix. The sweetener mix was expected to be as sweet as or sweeter than the sucrose control for this matrix. Of total perceived sweetness intensity in each of the experimental samples in Table 11, 75% comes from sucrose and 25% comes from HTS, 50% comes from sucrose and 50% comes from HTS, 25% comes from sucrose and 75% comes from HTS, respectively.
HTS ((0.0 mg/mL, 0.008 mg/mL, 0.023 mg/mL and 0.064 mg/mL) and sucrose (10% w/w, 7.5% w/w, 5% w/w, and 2.5% w/w (respectively)) were added to a lemon/lime soda. The sweetener mixture was compared to a control with only sucrose added to the matrix. The sweetener mix was expected to be as sweet as or sweeter than the sucrose control for this matrix. Of total perceived sweetness intensity in each of the experimental samples in Table 12, 75% comes from sucrose and 25% comes from HTS, 50% comes from sucrose and 50% comes from HTS, 25% comes from sucrose and 75% comes from HTS, respectively.
HTS ((0.0 mg/mL, 0.005 mg/mL, 0.007 mg/mL and 0.010 mg/mL) and sucrose (4% w/w, 3.0% w/w, 2% w/w, and 1.0% w/w (respectively)) were added to an unsweetened almond milk. The sweetener mixture was compared to a control with only sucrose added to the matrix. The sweetener mix was expected to be as sweet as or sweeter than the control for this matrix. Of total perceived sweetness intensity in each of the experimental samples in Table 13, 75% comes from sucrose and 25% comes from HTS, 50% comes from sucrose and 50% comes from HTS, 25% comes from sucrose and 75% comes from HTS, respectively.
HTS ((0.0 mg/mL, 0.008 mg/mL, 0.023 mg/mL and 0.064 mg/mL) and sucrose (45% w/w, 33.8% w/w, 23% w/w, and 11.3% w/w (respectively)) were added to a chocolate spread. The sweetener mixture was compared to a control with only sucrose added to the matrix. The sweetener mix was expected to be as sweet as or sweeter than the control for this matrix. Of total perceived sweetness intensity in each of the experimental samples in Table 14, 75% comes from sucrose and 25% comes from HTS, 50% comes from sucrose and 50% comes from HTS, 25% comes from sucrose and 75% comes from HTS, respectively.
HTS ((0.0 mg/mL, 0.007 mg/mL, 0.015 mg/mL and 0.035 mg/mL) and erythritol (11.43% w/w, 8.57% w/w, 5.71% w/w, and 2.86% w/w (respectively)) were added to a citric acid solution. The sweetener mixture was compared to a control with only erythritol added to the matrix. The sweetener mix was expected to be as sweet as or sweeter than the control for this matrix. Of total perceived sweetness intensity in each of the experimental samples in Table 15, 75% comes from erythritol and 25% comes from HTS, 50% comes from erythritol and 50% comes from HTS, 25% comes from erythritol and 75% comes from HTS, respectively.

Another experiment has as its system perception of the flavor. The experiment in a line: Tasting of HTS flavor modifying compositions in a mock beverage matrix. The class given is in vivo, human. The conditions noted are these: pH about 3, 0.25% w/w lemon/lime flavor, sucralose 0.0387% w/w, HTS 0.004 mg/mL. The protocol:
HTS (0.004 mg/mL) and sucrose (10% w/w concentration) were added to a mock beverage matrix (citric acid, a flavor and carbonation). […] HTS and sucrose were added to hit a target of 10% w/w sucrose equivalent sweetness. The HTS/sucrose mixture was compared to an unsweetened control, an unsweetened control+0.004 mg/mL HTS, and a sucrose sweetened control (10% w/w concentration of sucrose).
HTS (0.004 mg/mL) and erythritol (13.3% w/w concentration) were added to a mock beverage matrix (citric acid, a flavor, and carbonation). […] HTS and erythritol were added to hit a target of 10% w/w sucrose equivalent sweetness. The HTS/erythritol mixture was compared to an unsweetened control, an unsweetened control+0.004 mg/mL HTS, and an erythritol sweetened control (13.3% w/w concentration).
HTS (0.004 mg/mL) and sucralose (0.0387% w/w concentration) were added to a mock beverage matrix (citric acid, a flavor, and carbonation). […] HTS and sucralose were added to hit a target of 10% w/w sucrose equivalent sweetness. The HTS/sucralose mixture was compared to an unsweetened control, an unsweetened control+0.004 mg/mL HTS, and a sucralose sweetened control (0.0387% w/w concentration).
HTS (0.004 mg/mL) and stevia (0.0395% w/w concentration) were added to a mock beverage matrix (citric acid, a flavor, and carbonation). […] HTS and stevia were added to hit a target of 10% w/w sucrose equivalent sweetness. […]

Another experiment concerns sweet taste. The conditions noted are these: cited from earlier work.
Another experiment relates to sweet taste response. The experiment in a line: Concentration-response functions for sweet taste (Opertech Bio). The class given is in vivo. The conditions noted are these: for Relative to Sucrose (mM): equivalency to sucrose on a molar basis; for Relative to Sucrose (mg/ml): equivalency to sucrose on a weight basis; for EC50: half-maximal sweet taste response. The protocol: Each data point in the curves for mycodulcein, aspartame, thaumatin, rebaudioside A was calculated as the average across 32 replicates and averaged across 16 replicates for the sucrose curve; error bars are SEM. Points for water and sucrose controls were similarly calculated as the average across 128 and 64 replicates, respectively. Curves were fit by non-linear regression.
Opertech Bio (Philadelphia, PA) performed a quantitative characterization of the concentration-dependence of the taste properties of the purified his-tagged mycodulcein HTS (SEQ ID NO:141 with His-tag, SEQ ID NO:142) obtained from E. coli as described in Example 5 and purified as described in Example 4. The sweet-taste potency and relative efficacy of mycodulcein (HTS) was compared with sucrose and with other sweeteners thaumatin, rebaudioside A, and aspartame. Control standards were solutions of 200 mM sucrose, 100 mM NaCl, 0.5 mM quinine, and 10 mM citric acid. […] Each data point in the curves for mycodulcein, aspartame, thaumatin, and rebaudioside A was calculated as the average across 32 replicates and averaged across 16 replicates for the sucrose curve; error bars are SEM. Points for water and sucrose controls were similarly calculated as the average across 128 and 64 replicates, respectively. Curves were fit by non-linear regression.
The concentrations that elicit half-maximal sweet taste response (EC50s, or potencies) were derived from the nonlinear regression. […] Also provided are the equivalencies to sucrose on a molar basis and on a weight basis.

For a further experiment, the system named is sweet sensation. The experiment in a line: CATA time intensity of the sweet sensation in water. It counts as in vivo, human. The protocol:
Evaluation of thaumatin, sucrose, and his-tagged mycodulcein (HTS) was carried out using a CATA (click all that apply) time intensity of the sweet sensation of named analytes in water at 0.045 mg/mL for proteins and 10% sucrose. Methodology: Time Intensity Technique; Data collection software: EyeQuestion, responses recorded every 2.57 seconds; Scaling Method: a 15-point sweet scale, e.g., score 5=5% sucrose, score 10=10% sucrose; Evaluation Protocol: small volume sip, tilt and spit test. There were 3-6 panelists and 2 replicates. All samples were blinded and presented with randomized 3-digit codes. Training Strategies: An intense training on sweet scale over 6 weeks on 15-point sweet scale to confidently assign sweet values. Due to unique sweet behavioral patterns, it is necessary to train time intensity principles over 3 weeks. Samples were tasted with a stopwatch to note times and help reach a consensus. # of Panelists: 3-6, # of replications: 2. All samples were blinded and presented with randomized 3-digit codes. Statistical analysis: due to the small # of panelists, a statistical analysis cannot be performed.

[2] abbreviates: nonlinear regression, read-out: EC50 (molar units).

Read-outs that look alike come from different tables or passages of the source.

`OC[C@H]1O[C@H](O[C@]2(CCl)O[C@H](CCl)[C@@H](O)[C@@H]2O)[C@H](O)[C@@H](O)[C@H]1Cl` [Sucralose, sucralose]: the Observations result in experiment [1] (almond milk, sucralose w/w / HTS mg/mL: control 0.0053%/0.0, 75/25 0.0037%/0.005, 50/50 0.0023%/0.007, 25/75 0.0011%/0.010) is listed as “Pleasantly sweetened almond milk. Little”; in experiment [1] (chocolate spread, sucralose w/w / HTS mg/mL: control 0.0387%/0.0, 75/25 0.0247%/0.008, 50/50 0.0096%/0.023, 25/75 0.0030%/0.064), “Reduced cocoa flavor intensity compared to sucrose”; in experiment [1] (citric acid solution, sucralose w/w / HTS mg/mL: control 0.0170%/0.0, 75/25 0.0100%/0.007, 50/50 0.0053%/0.015, 25/75 0.0023%/0.035), “Intense initial sweetness that overpowers acidity”; in experiment [1] (lemon/lime soda, sucralose w/w / HTS mg/mL: control 0.0387%/0.0, 75/25 0.0247%/0.008, 50/50 0.0096%/0.023, 25/75 0.0030%/0.064) it was “Intense initial sourness. Strong sweet aftertaste”; in the experiment on perception of the flavor, “Sweet linger, little flavor carry over”.

Consider `O=C(CO)C(O)C(O)C(O)CO` (centres unmarked) [Allulose, allulose], for which the Observations result in experiment [1] (lemon/lime soda, allulose w/w / HTS mg/mL: control 14.3%/0.0, 50/50 7.14%/0.023) is “Muted citrus flavor and sweetness intensity”. Further, the “potency curve multiplier relative to sucrose” value with sweet taste (linear potency curve similar to sucrose (DuBois 1991)) is given as 0.7 ×.

For orientation: EC50 means the concentration that produces a half-maximal response. On to `C=C1C[C@@]23CC[C@H]4[C@@](C)(CCC[C@@]4(C)C(=O)O[C@@H]4O[C@H](CO)[C@@H](O)[C@H](O)[C@H]4O)[C@@H]2CC[C@]1(O[C@@H]1O[C@H](CO)[C@@H](O)[C@H](O[C@@H]2O[C@H](CO)[C@@H](O)[C@H](O)[C@H]2O)[C@H]1O[C@@H]1O[C@H](CO)[C@@H](O)[C@H](O)[C@H]1O)C3` [REB, rebaudioside A], for which, in the experiment with sweet taste response, the “Relative to Sucrose (mM)” value is 857, the “Relative to Sucrose (mg/ml)” value stood at 300 and the “EC50” value came to 41.1 µg/mL. For the same compound, the EC50 with sweet taste response (setting [2]) was 42 µM.

As for `OC[C@H]1O[C@@](CO)(O[C@H]2O[C@H](CO)[C@@H](O)[C@H](O)[C@H]2O)[C@@H](O)[C@@H]1O` [SUC, sucrose], the Observations entry is “Pleasantly sweetened almond milk, creamy” in experiment [1] (almond milk, sucrose w/w / HTS mg/mL: control 4%/0.0, 75/25 3.0%/0.005, 50/50 2%/0.007, 25/75 1.0%/0.010); “Reminiscent of sweet dessert and ice” in experiment [1] (citric acid solution, sucrose w/w / HTS mg/mL: control 8%/0.0, 75/25 6%/0.007, 50/50 4%/0.015, 25/75 2%/0.035); “Good, sweet to sour balance and pleasant” in experiment [1] (lemon/lime soda, sucrose w/w / HTS mg/mL: control 10%/0.0, 75/25 7.5%/0.008, 50/50 5%/0.023, 25/75 2.5%/0.064).

For “brazzein (QDKCKKVYENYPVSKCQLANQCNYDCKLDKHARSGECFYDEKRNLQCICDYCEY; UniProt P56552 1-54, looked up) [sweet protein]”, in the experiment with sweet taste (background), the “times sweeter than sucrose on a gram basis” value is recorded as 500 times.

Take monellin: in the experiment on sweet taste (background), the “times sweeter than sucrose on a molar basis” value is listed as 100,000 times.

thaumatin [THN]: the “intensity when sucrose reaches threshold level” value in the experiment on sweet sensation (0.045 mg/mL in water) is recorded as “low-moderate intensity”. Moreover, the “slope of time intensity curve” value with sweet sensation (0.045 mg/mL in water vs 10% sucrose, longer peak time and more gradual/longer decline) is listed as “flatter slope”. The “maximum intensity (Imax) higher than sucrose” value in the experiment with sweet sensation (0.045 mg/mL protein in water vs 10% sucrose) is on record as “approximately 1 point on the 15 point scale”. Besides, in the experiment on sweet sensation (time intensity experiment), the “potency, sweeter than sucrose on a molar basis” value is “approximately 120,000 ×” and the “potency, sweeter than sucrose on a weight basis” value was ~3000 ×. In the experiment with sweet taste response, the “Relative to Sucrose (mM)” value was found to be 120000, the “Relative to Sucrose (mg/ml)” value is 1865 and the concentration for a half-maximal effect (EC50) is 6.6 µg/mL. In addition, the EC50 in the experiment on sweet taste response (setting [2]) was found to be 0.3 µM. The “times sweeter than sucrose on a gram basis” value in the experiment with sweet taste (background) was 3000 times.
